Laboratory results as given in PubChem BioAssay (NCI).
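96-well plates; 48 h exposure; 5 concentrations. Endpoints by linear interpolation between flanking doses. Not reached: highest tested concentration assigned. At the TGI there is no net growth.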

Assays:
Experiment in all cases: NCI anticancer screen, dose series, 48 h
[1] = system: SNB-75 CNS
[2] = system: HT29 colon
[3] = system: T-47D breast
[4] = system: A498 renal
[5] = system: BT-549 breast
[6] = system: PC-3 prostate
[7] = system: SW-620 colon
[8] = system: MALME-3M melanoma
[9] = system: SNB-19 CNS
[10] = system: ACHN renal
[11] = system: M14 melanoma
[12] = system: CAKI-1 renal
[13] = system: HCC-2998 colon
[14] = system: 786-0 renal
[15] = system: HCT-116 colon
[16] = system: RXF 393 renal
[17] = system: OVCAR-4 ovarian
[18] = system: TK-10 renal
[19] = system: SK-MEL-2 melanoma
[20] = system: RPMI-8226 leukemia
[21] = system: SK-OV-3 ovarian
[22] = system: MDA-N
[23] = system: SK-MEL-28 melanoma
[24] = system: HCT-15 colon
[25] = system: EKVX NSCLC
[26] = system: NCI-H23 lung
[27] = system: SK-MEL-5 melanoma
[28] = system: SF-295 CNS
[29] = system: OVCAR-3 ovarian
[30] = system: HS 578T breast
[31] = system: UO-31 renal
[32] = system: IGROV1 ovarian
[33] = system: MDA-MB-435
[34] = system: UACC-62 melanoma
[35] = system: HOP-92 NSCLC
[36] = system: NCI/ADR-RES ovarian
[37] = system: COLO 205 colon
[38] = system: U251 CNS
[39] = system: OVCAR-5 ovarian
[40] = system: DU-145 prostate
[41] = system: NCI-H460 lung
[42] = system: MCF7 breast
[43] = system: NCI-H522 lung
[44] = system: A549 NSCLC
[45] = system: K-562 leukemia
[46] = system: HOP-62 NSCLC
[47] = system: MOLT-4 leukemia
[48] = system: UACC-257 melanoma
[49] = system: MDA-MB-231 breast
[50] = system: OVCAR-8 ovarian
[51] = system: KM12 colon
[52] = system: SF-268 CNS
[53] = system: HL-60(TB) leukemia
[54] = system: SR leukemia
[55] = system: LOX IMVI melanoma
[56] = system: CCRF-CEM leukemia
[57] = system: SF-539 CNS
[58] = system: SN12C renal

Question: For `CCOC(=O)c1ccc(-c2onc(C)c2Br)[nH]1`, which TGI [1] is on record?
Answer: > 100 µM

Question: And the TGI [2]?
Answer: > 100 µM

Question: What about the TGI [3] of the same compound?
Answer: > 100 µM

Question: What about the TGI [4] of the same compound?
Answer: > 100 µM

Question: What about the TGI [5] of the same compound?
Answer: > 100 µM

Question: And the TGI [6]?
Answer: > 100 µM

Question: What about the TGI [7] of the same compound?
Answer: > 100 µM

Question: What about the TGI [8] of the same compound?
Answer: > 100 µM

Question: What about the TGI [9] of the same compound?
Answer: > 100 µM

Question: What about the TGI [10] of the same compound?
Answer: > 100 µM

Question: And the TGI [11]?
Answer: > 100 µM

Question: And the TGI [12]?
Answer: > 100 µM

Question: What about the TGI [13] of the same compound?
Answer: > 100 µM

Question: What about the TGI [14] of the same compound?
Answer: > 100 µM

Question: What about the TGI [15] of the same compound?
Answer: > 100 µM

Question: And the TGI [16]?
Answer: 96.1 µM

Question: And the TGI [17]?
Answer: > 100 µM

Question: And the TGI [18]?
Answer: > 100 µM

Question: What about the TGI [19] of the same compound?
Answer: > 100 µM

Question: What about the TGI [20] of the same compound?
Answer: > 100 µM

Question: And the TGI [21]?
Answer: > 100 µM

Question: What about the TGI [22] of the same compound?
Answer: > 100 µM

Question: And the TGI [23]?
Answer: > 100 µM

Question: What about the TGI [24] of the same compound?
Answer: > 100 µM

Question: And the TGI [25]?
Answer: > 100 µM

Question: What about the TGI [26] of the same compound?
Answer: > 100 µM

Question: And the TGI [27]?
Answer: > 100 µM

Question: What about the TGI [28] of the same compound?
Answer: > 100 µM

Question: And the TGI [29]?
Answer: > 100 µM

Question: And the TGI [30]?
Answer: > 100 µM

Question: And the TGI [31]?
Answer: > 100 µM

Question: What about the TGI [32] of the same compound?
Answer: > 100 µM

Question: What about the TGI [33] of the same compound?
Answer: > 100 µM

Question: And the TGI [34]?
Answer: > 100 µM

Question: And the TGI [35]?
Answer: 92 µM

Question: And the TGI [36]?
Answer: > 100 µM

Question: What about the TGI [37] of the same compound?
Answer: > 100 µM

Question: And the TGI [38]?
Answer: > 100 µM

Question: And the TGI [39]?
Answer: > 100 µM

Question: What about the TGI [40] of the same compound?
Answer: > 100 µM

Question: And the TGI [41]?
Answer: > 100 µM

Question: What about the TGI [42] of the same compound?
Answer: > 100 µM

Question: What about the TGI [43] of the same compound?
Answer: > 100 µM

Question: And the TGI [44]?
Answer: > 100 µM

Question: What about the TGI [45] of the same compound?
Answer: > 100 µM

Question: And the TGI [46]?
Answer: > 100 µM

Question: What about the TGI [47] of the same compound?
Answer: > 100 µM

Question: What about the TGI [48] of the same compound?
Answer: > 100 µM

Question: What about the TGI [49] of the same compound?
Answer: > 100 µM

Question: And the TGI [50]?
Answer: > 100 µM

Question: And the TGI [51]?
Answer: > 100 µM

Question: And the TGI [52]?
Answer: > 100 µM

Question: How did the TGI [1] turn out when `CCCSc1ccc2[nH]c(N3C(=O)/C(=C/c4ccc(O)c(OC)c4)N=C3c3ccccc3)cc2c1` was run?
Answer: > 100 µM

Question: What about the TGI [2] of the same compound?
Answer: 88.9 µM

Question: What about the TGI [3] of the same compound?
Answer: > 100 µM

Question: And the TGI [4]?
Answer: 93 µM

Question: And the TGI [5]?
Answer: 46.4 µM

Question: And the TGI [6]?
Answer: > 100 µM

Question: And the TGI [7]?
Answer: > 100 µM

Question: And the TGI [8]?
Answer: 84 µM

Question: And the TGI [9]?
Answer: > 100 µM

Question: What about the TGI [10] of the same compound?
Answer: > 100 µM

Question: What about the TGI [11] of the same compound?
Answer: 35.2 µM

Question: And the TGI [12]?
Answer: > 100 µM

Question: What about the TGI [13] of the same compound?
Answer: 14.1 µM

Question: And the TGI [14]?
Answer: > 100 µM

Question: And the TGI [15]?
Answer: > 100 µM

Question: And the TGI [16]?
Answer: > 100 µM

Question: What about the TGI [53] of the same compound?
Answer: 11.6 µM

Question: And the TGI [54]?
Answer: > 100 µM

Question: And the TGI [19]?
Answer: 2.73 µM

Question: What about the TGI [20] of the same compound?
Answer: 34.3 µM

Question: What about the TGI [21] of the same compound?
Answer: 76.3 µM

Question: What about the TGI [22] of the same compound?
Answer: 5.26 µM

Question: What about the TGI [23] of the same compound?
Answer: > 100 µM

Question: What about the TGI [24] of the same compound?
Answer: 32 µM

Question: What about the TGI [25] of the same compound?
Answer: 67.4 µM

Question: What about the TGI [26] of the same compound?
Answer: 61.5 µM

Question: What about the TGI [27] of the same compound?
Answer: 16.1 µM

Question: And the TGI [29]?
Answer: > 100 µM

Question: And the TGI [30]?
Answer: 14.3 µM

Question: And the TGI [31]?
Answer: > 100 µM

Question: What about the TGI [32] of the same compound?
Answer: > 100 µM

Question: And the TGI [33]?
Answer: > 100 µM

Question: And the TGI [34]?
Answer: 19.8 µM

Question: What about the TGI [35] of the same compound?
Answer: > 100 µM

Question: And the TGI [36]?
Answer: > 100 µM

Question: What about the TGI [37] of the same compound?
Answer: 19.5 µM

Question: What about the TGI [39] of the same compound?
Answer: 44.3 µM

Question: What about the TGI [40] of the same compound?
Answer: > 100 µM

Question: What about the TGI [41] of the same compound?
Answer: 10.1 µM

Question: What about the TGI [42] of the same compound?
Answer: > 100 µM

Question: What about the TGI [55] of the same compound?
Answer: > 100 µM

Question: What about the TGI [43] of the same compound?
Answer: 24.3 µM

Question: What about the TGI [56] of the same compound?
Answer: 93.8 µM

Question: And the TGI [45]?
Answer: > 100 µM

Question: And the TGI [46]?
Answer: > 100 µM

Question: And the TGI [47]?
Answer: 20.8 µM

Question: And the TGI [48]?
Answer: 51.8 µM

Question: And the TGI [57]?
Answer: 49 µM

Question: And the TGI [50]?
Answer: > 100 µM

Question: What about the TGI [58] of the same compound?
Answer: 50.4 µM

Question: What about the TGI [51] of the same compound?
Answer: > 100 µM

Question: What about the TGI [52] of the same compound?
Answer: > 100 µM
